Laboratory results as given in PubChem BioAssay AID618 (Sanford-Burnham Center for Chemical Genomics, 2007).
Activity calls are given as the source filed them. No rule for the calls is given here.

System: MT1-MMP promoter luciferase reporter cells, luminescence
Test: inhibitors of MT1-MMP promoter transcription, cell-based, luciferase reporter, luminescence (AID 618);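 also: actives suppress MT1-MMP promoter-driven transcription so potencies describe inhibitors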

Row | Structure (SMILES) | EC50
1 | CCN(CC)c1ccc2cc(-c3nc4ccccc4[nH]3)c(=O)oc2c1 | 1.06 µM
2 | O=S(=O)(c1ccc(Cl)cc1)c1snnc1-c1ccccc1 | 13.2 µM
3 | CCOc1ccc(OCc2ccc(C(=O)OCc3ccccn3)o2)cc1 | 3.05 µM
4 | O=C(Nc1nccs1)c1cc2c(s1)CCCCC2 | 0.55 µM
5 | Cc1csc(NC(=O)c2cc3c(s2)CCCC3)n1 | 1.26 µM
6 | CCOC(=O)C1CCCCN1C(=O)CCc1c(C)nc2cc(-c3ccccc3)nn2c1C (centres undefined) | 1.15 µM
7 | COC(=O)Cc1ccc(NC(=O)c2ccc(C(C)(C)C)cc2)cc1 | 0.31 µM
8 | COc1ccc(C(=O)/C=C/Nc2ccccn2)cc1 | 0.19 µM
9 | CNc1nnc(-c2ccc(N(C)C)cc2)s1 | 5.1 µM
10 | COc1ccc(C2=Nc3ccccc3OC2)cc1 | 38.1 µM
11 | COc1ccc(-c2cc3nc(C)cc(N)n3n2)cc1 | 1.73 µM
12 | Cc1cc(C(=O)CSc2nnc(-c3cccs3)o2)c(C)n1-c1ccccc1 | 7.72 µM
13 | CC(C)(C)c1ccc(C(=O)Nc2ccc(CC(=O)O)cc2)o1 | 0.23 µM
14 | Cc1ccc(-c2nnc(SCC(=O)Nc3ccccc3F)o2)cc1 | 0.6 µM
15 | Cc1ccc(NC(=O)c2ccc3c(c2)OCCO3)cc1 | 1.71 µM
16 | O=C(O)CSCC(=O)Nc1ccc(C2CCCCC2)cc1 | 0.58 µM
17 | COc1ccc(-c2cn3nc4c(nc3n2)CCCC4)cc1 | 0.59 µM
18 | Oc1c(CN2CCc3ccccc3C2)cc(Cl)c2cccnc12 | 5.81 µM
19 | Cc1cc(-c2csc(N)n2)c(C)n1CCC(C)C | 39.9 µM
20 | COc1ccc(C(=O)Nc2ccc3c(c2)OCCO3)cc1 | 2.98 µM

Row | Structure (SMILES) | EC50
21 | CC(C)c1ccc(-c2nnn(CCC(=O)O)n2)cc1 | 1.04 µM
22 | COC(=O)c1ccc(-c2nc3cc(N)ccc3o2)cc1 | 3.09 µM
23 | O=c1c2ccccc2nnn1CSc1nnc2sc3ccccc3n12 | 8.02 µM
24 | CC(C)(C)C(=O)N1CCc2cc(-c3csc(N)n3)ccc21 | 1.36 µM
25 | O=C(Nc1cccc(O)c1)c1noc2c1CCCCC2 | 0.23 µM
26 | CC(C)CNC(=O)c1coc(=O)c(Br)c1 | 18.5 µM
27 | Clc1ccccc1OCc1nc(-c2ccccn2)no1 | 6.65 µM
28 | CN1/C(=C/C(=O)c2nc(S(C)(=O)=O)ncc2Cl)C(C)(C)c2ccccc21 | 16.1 µM
29 | Cc1oncc1C(=O)Nc1ccc(C(F)(F)F)cc1 | 5.65 µM
30 | Cc1ccc(-c2nc3cc(N)ccc3o2)c(C)c1 | 2.68 µM
31 | Cc1ccc(CNc2nc3ccccc3s2)s1 | 1.67 µM
32 | CC(C)(C)c1ccc(C(=O)N2CCCCCC2=O)cc1 | 12.8 µM
33 | Cc1ccc(-c2nc3n(n2)Cc2ccccc2-3)cc1 | 1.49 µM
34 | Cc1ccc(-n2nc3ccc(N)cc3n2)cc1 | 13.6 µM
35 | CC1=CC(C)(C)Nc2ccc(OC(=O)CN3C(=O)CCC3=O)cc21 | 42 µM
36 | O=C(CCCc1ccccc1)c1ccc2c(c1)OCCO2 | 0.28 µM
37 | CCCc1ccc(-c2ccc(F)c(N)c2)nc1 | 0.66 µM
38 | COc1ccc(O)c(C(=O)CC(=O)c2ccccc2)c1 | 2.22 µM
39 | O=c1/c(=C/c2ccccn2)sc2nc3ccccc3n12 | 10 µM
40 | Brc1ccc(-c2nc(-c3ccccn3)no2)o1 | 2.14 µM

More lines, now with the values ahead:

Row | EC50 | Structure (SMILES)
41 | 3.48 µM | CC(=O)Nc1ccc2oc(-c3cc(F)c(F)cc3Cl)nc2c1
42 | 0.11 µM | Cc1cc(C(=O)CN2C(=O)c3ccccc3S2(=O)=O)c(C)n1CC1CCCO1 (centres undefined)
43 | 2.37 µM | C=CCn1c(C)cc(C(=O)CSc2ccc(NC(C)=O)cc2)c1C
44 | 0.21 µM | Cc1cc(C)c2c(N)c(C(=O)Nc3ncc(C)s3)sc2n1
45 | 15 µM | Cc1ccc(-c2csc3ncnc(Sc4nnc(CN5CCCCCC5=O)o4)c23)cc1
46 | 0.96 µM | COc1cccc(C(=O)Nc2nc3ccccc3[nH]2)c1
47 | 1.64 µM | CC1=NC(=O)C(N=Nc2cccc(C(=O)O)c2)N1c1ccccc1 (centres undefined)
48 | 10.7 µM | Nc1ccc(-c2nc3c(Cl)cc(N)cc3[nH]2)cc1
49 | 1.98 µM | CCN=C1NN=C(c2ccc(C)cc2)CS1
50 | 0.57 µM | Cc1ccc(-c2nc(N/N=C/c3ccncc3)c3ccccc3n2)cc1
51 | > 50 µM (inactive) | COc1ccc2nc(-c3ccc(N)cc3)[nH]c2c1
52 | 1.43 µM | c1ccc(OCCSc2nnc3sc4ccccc4n23)cc1
53 | 4.32 µM | N#C/C(=C\c1ccc(N2CCOCC2)o1)c1nc2ccccc2[nH]1
54 | 18.6 µM | Cc1ccc(C(=O)COC(=O)c2cccs2)cc1
55 | 2.64 µM | C=CCn1c(C)cc(C(=O)CSc2nc3ccccc3[nH]2)c1C
56 | 23.6 µM | CCC/C(O)=C1\C(=O)CC(C)(C)CC1=Nc1ccc(OC)cc1OC
57 | 15 µM | Cn1ccnc1SCc1cn2cc(Br)ccc2n1
58 | 2.94 µM | Cc1oc(-c2ccc3c(c2)OCCO3)cc1C(=O)O
59 | 29.7 µM | O=C(O)CCSc1nnc(-c2ccc3c(c2)OCO3)o1
60 | > 50 µM (inactive) | O=C(CN1C(=O)c2ccccc2S1(=O)=O)c1ccccc1
61 | 8.74 µM | COc1cccc(C(=O)NCCC2=CCCCC2)c1
62 | 25.5 µM | Cc1ccccc1C(=O)N/N=C/c1ccc([N+](=O)[O-])s1
63 | < 0.098 µM | N#Cc1c(NC(=O)CSc2ncn[nH]2)sc2c1CCCCC2
64 | 4.27 µM | O=C(CSc1nnc(-c2csc3c2CCCC3)o1)Nc1ccccc1
65 | 7.14 µM | O=C(Nc1ccc2c(c1)OCCO2)c1cncc(Br)c1
66 | 2.02 µM | CCc1ccc(-c2nnn(CCC(=O)OC)n2)cc1
67 | 6.96 µM | O=C(CCCOc1ccccc1)N1CCCCC1

Row | EC50 | Structure (SMILES)
68 | 0.23 µM | O=C(/C=C\Nc1ccc2c(c1)OCO2)c1ccccn1
69 | 2.72 µM | Cc1ccc(NC2=Nc3ccccc3CC2)cc1
70 | > 50 µM (inactive) | O=C(Nc1ccccn1)c1cc2ccccc2o1
71 | 3.74 µM | c1ccc(-c2cnc(-c3ccccc3)nc2)cc1
72 | 1.7 µM | c1ccc(C2=NNC(=NC3CC3)SC2)cc1
73 | 6.52 µM | O=C(NC1=NCCS1)c1cc2ccccc2o1
74 | 13.2 µM | COc1cc(SC)ccc1C(=O)Nc1ccc2c(c1)OCCO2
75 | 4.2 µM | c1ccc(-c2ccc(-c3ccccn3)nn2)nc1
76 | 1.7 µM | Cc1ccc(C(=O)CSc2nnnn2C(C)C)c(C)c1
77 | 21.9 µM | Nc1cccc2nc3ccccc3cc12
78 | 2.56 µM | CCOc1ccc(C(=O)NCCc2ccccc2)cc1
79 | > 50 µM (inactive) | CCn1c(SCC(=O)Nc2ccccc2C)nnc1-c1ccccc1O
80 | 0.27 µM | COc1ccc(-c2nsc3c(N4CCCCC4)ncnc23)cc1
81 | 34.3 µM | Cc1nc(NC2=NCN(CCCN3CCOCC3)CN2)nc2c(C)cccc12
82 | > 50 µM (inactive) | O=C(NCc1cccs1)c1nc2c(nnn2Cc2ccccc2Cl)c(=O)[nH]1
83 | 6.05 µM | CC(C)C(=O)Nc1ccc(-c2nc3cccnc3o2)cc1
84 | 1.62 µM | CCOC(=O)c1sc2nc3c(cc2c1N)COC(C(C)C)C3 (centres undefined)
85 | 6.08 µM | CCc1nnc(NC(=O)c2ccc(OC)cc2OC)s1
86 | 22 µM | COc1ccccc1-c1cc(C(F)(F)F)nc(S(=O)(=O)CCCC(=O)N2CCOCC2)n1
87 | 5.3 µM | COCCn1c(C)cc(C2=NNC(=Nc3ccccc3)SC2)c1C
88 | 7.03 µM | Clc1cccc(-c2nnc(-c3ccccc3)o2)c1
89 | 6.54 µM | NC(=O)c1c(NC(=O)c2cc3ccccc3o2)sc2c1CCC2
90 | 6.27 µM | CC(C)C(=O)Nc1ccc(NC(=O)c2ccccn2)cn1
91 | > 50 µM (inactive) | c1ccc(-c2noc(-c3cccs3)n2)nc1
92 | 12.4 µM | CC1CCc2nc(NC(=O)C3CCCO3)sc2C1 (centres undefined)
93 | 4.37 µM | CCCOc1ccc(-c2nnc(-c3cccs3)o2)cc1
94 | 15.7 µM | CCOC(=O)CCS(=O)(=O)c1nc(-c2ccccc2)cc(C(F)(F)F)n1
